One data set concerns the target T1, rat B2 receptor (Rattus norvegicus, UniProt P25023).
T1 sequence (P25023 1-396): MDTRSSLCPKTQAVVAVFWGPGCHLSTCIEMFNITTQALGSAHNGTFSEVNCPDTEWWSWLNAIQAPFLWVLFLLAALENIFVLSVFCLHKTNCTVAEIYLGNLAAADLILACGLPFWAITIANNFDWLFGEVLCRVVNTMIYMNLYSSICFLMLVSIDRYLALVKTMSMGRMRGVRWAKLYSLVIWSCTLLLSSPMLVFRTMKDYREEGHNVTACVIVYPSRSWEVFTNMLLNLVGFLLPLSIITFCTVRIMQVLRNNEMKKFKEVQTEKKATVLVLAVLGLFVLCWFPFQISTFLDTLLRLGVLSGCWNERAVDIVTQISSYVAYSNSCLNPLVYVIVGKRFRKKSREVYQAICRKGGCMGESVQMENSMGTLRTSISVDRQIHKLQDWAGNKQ
In words: In vitro pharmacology testing, antagonist potency. In kind it is biochemical.

A further data set has as its target T2, human B2 receptor (Homo sapiens, UniProt P30411).
T2 sequence (P30411 1-391): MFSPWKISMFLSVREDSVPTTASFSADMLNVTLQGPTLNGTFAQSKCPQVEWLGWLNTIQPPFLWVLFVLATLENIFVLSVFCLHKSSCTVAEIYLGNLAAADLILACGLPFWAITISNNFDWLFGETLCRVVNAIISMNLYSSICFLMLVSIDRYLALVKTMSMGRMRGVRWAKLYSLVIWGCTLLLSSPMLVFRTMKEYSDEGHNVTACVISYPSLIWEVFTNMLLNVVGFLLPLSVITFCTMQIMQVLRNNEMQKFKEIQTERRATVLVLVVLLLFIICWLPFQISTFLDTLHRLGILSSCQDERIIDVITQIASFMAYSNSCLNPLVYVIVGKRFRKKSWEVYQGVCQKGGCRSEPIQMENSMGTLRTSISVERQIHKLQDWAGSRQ
In words: In vitro pharmacology testing, antagonist potency. Format: biochemical.

Another data set addresses T3, dog B2 receptor (Canis lupus familiaris, UniProt Q9BDQ4).
T3 sequence (Q9BDQ4 1-392): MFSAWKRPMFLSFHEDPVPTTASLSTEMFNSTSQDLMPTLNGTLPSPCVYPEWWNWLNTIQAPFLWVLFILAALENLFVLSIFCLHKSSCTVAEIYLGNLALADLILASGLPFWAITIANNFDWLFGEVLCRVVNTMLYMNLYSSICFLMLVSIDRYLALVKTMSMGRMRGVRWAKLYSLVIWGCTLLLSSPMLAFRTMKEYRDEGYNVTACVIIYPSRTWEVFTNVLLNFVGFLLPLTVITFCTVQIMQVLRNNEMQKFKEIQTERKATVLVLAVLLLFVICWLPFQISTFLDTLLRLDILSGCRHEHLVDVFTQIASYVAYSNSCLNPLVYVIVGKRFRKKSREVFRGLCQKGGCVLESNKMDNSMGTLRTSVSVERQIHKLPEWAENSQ
In words: In vitro pharmacology testing, antagonist potency. In kind it is biochemical.

A further data set concerns monkey B2 receptor. In words: In vitro pharmacology testing, antagonist potency. In kind it is biochemical.
In another data set the target is T4, mouse B2 receptor (Mus musculus, UniProt P32299).
T4 sequence (P32299 1-392): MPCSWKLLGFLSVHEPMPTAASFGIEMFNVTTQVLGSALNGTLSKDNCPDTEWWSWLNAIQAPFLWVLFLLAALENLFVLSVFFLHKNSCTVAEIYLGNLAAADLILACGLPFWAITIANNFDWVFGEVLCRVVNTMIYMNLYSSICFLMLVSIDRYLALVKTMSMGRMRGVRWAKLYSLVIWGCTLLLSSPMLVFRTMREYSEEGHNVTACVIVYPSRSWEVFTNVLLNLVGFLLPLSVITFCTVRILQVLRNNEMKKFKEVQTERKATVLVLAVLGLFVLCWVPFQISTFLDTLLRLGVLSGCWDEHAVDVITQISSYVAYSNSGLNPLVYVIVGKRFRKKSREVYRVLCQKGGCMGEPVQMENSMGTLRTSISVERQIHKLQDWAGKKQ
Briefly: In vitro pharmacology testing, antagonist potency. Format: biochemical.

The nature of data set [1]: Single dose pharmacokinetic study in monkeys. In kind it is in vivo, Cynomolgus monkeys. Particulars: after administration, except one animal treated with the Test Formulation. On the procedure: The pharmacokinetic properties of a liquid composition according to the invention after a single oral administration in Cynomolgus monkeys was studied and compared with those of a suspension of the same API in an aqueous carrier comprising methylcellulose (1 wt. %). The Test Formulation was based on composition E of Example 1, except that the concentration of the API was 5 mg/mL in essentially the same liquid vehicle as composition E. The Comparative Formulation comprised the same API at a concentration of 2 mg/mL, formulated as an aqueous drug suspension further comprising methylcellulose (1 wt %). […]
The pharmacokinetic parameters were determined from the individual plasma concentrations by non-compartmental analysis, using Kinetica™ 4.4.1 (Thermo Fisher). […]
Maximum plasma concentration (Cmax), sampling time of Cmax (Tmax), and sampling time of the last plasma concentration >LLOQ (Tlast) parameters were determined from the observations. The area under the plasma concentration-time curve from the time of dosing to the last quantifiable concentration was calculated using the linear up/logarithmic down trapezoidal rule (AUClast). At least 3 consecutive quantifiable concentrations had to be available for AUC calculation. […]
The percentage of extrapolated AUC from Tlast to infinity was calculated by Kinetica™ 4.4.1, using the following equation: […]

For the next data set, the target named is T5, bradykinin B2 receptor (Homo sapiens, UniProt P30411).
T5 sequence (P30411 1-391): T2 sequence (P30411 1-391)
Briefly: Estimated therapeutic efficacious threshold plasma concentration. Format: in vivo.

Turning to `[2H][C@@](C)(NC(=O)COC(F)F)c1cc(F)cc(Cl)c1COc1cccc2c(-c3ncnn3C)cc(C)nc12` [API, (S)-N-(1-deutero-1-(3-chloro-5-fluoro-2-((2-methyl-4-(1-methyl-1H-1,2,4-triazol-5-yl)quinolin-8-yloxy)methyl)phenyl)ethyl)-2-(difluoromethoxy)acetamide monohydrate], the antagonist potency result is listed as “low antagonist potency” on rat B2 receptor; “high antagonist potency” on human B2 receptor; “low antagonist potency” at dog B2 receptor; “high antagonist potency” in the data set with monkey B2 receptor; “low antagonist potency” at mouse B2 receptor. Besides, the “time up to which API plasma concentrations were quantifiable” value in data set [1] is recorded as “up to 24 hours”. Moreover, the “estimated EC50 (therapeutic efficacious threshold plasma concentration)” value on bradykinin B2 receptor is 2.4 ng/mL. Also, the “estimated EC85 (therapeutic efficacious threshold plasma concentration)” value at bradykinin B2 receptor was 13.8 ng/mL.
